Where two headings read alike, the source gives them in different places.

The target of one test is CK1ε (Homo sapiens, UniProt P49674). The experiment in a line: CK1ε kinase assay (Caliper LabChip electrophoretic separation of fluoresceinated peptide substrate and product). The format is biochemical. The settings on record: 200 pM CK1ε, 50 μM ATP, 1.5 μM peptide, 22 hours at room temperature. Put shortly:
(§1)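 Kinase reactions ran 22 h at room temperature, were stopped with EDTA, and phosphorylated product was separated electrophoretically from unphosphorylated fluoresceinated peptide. Compounds were tested at eleven concentrations from 10 mM DMSO stocks. IC50 by non-linear regression.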

The target of another test is CK1δ (Homo sapiens, UniProt P48730). The experiment in a line: CK1δ kinase assay (Caliper LabChip electrophoretic separation of fluoresceinated peptide substrate and product). The format is biochemical. The settings on record: 200 pM CK1δ, 50 μM ATP, 1.5 μM peptide, 22 hours at room temperature. Put shortly: as §1
Sequence of CK1δ (P48730 whole entry): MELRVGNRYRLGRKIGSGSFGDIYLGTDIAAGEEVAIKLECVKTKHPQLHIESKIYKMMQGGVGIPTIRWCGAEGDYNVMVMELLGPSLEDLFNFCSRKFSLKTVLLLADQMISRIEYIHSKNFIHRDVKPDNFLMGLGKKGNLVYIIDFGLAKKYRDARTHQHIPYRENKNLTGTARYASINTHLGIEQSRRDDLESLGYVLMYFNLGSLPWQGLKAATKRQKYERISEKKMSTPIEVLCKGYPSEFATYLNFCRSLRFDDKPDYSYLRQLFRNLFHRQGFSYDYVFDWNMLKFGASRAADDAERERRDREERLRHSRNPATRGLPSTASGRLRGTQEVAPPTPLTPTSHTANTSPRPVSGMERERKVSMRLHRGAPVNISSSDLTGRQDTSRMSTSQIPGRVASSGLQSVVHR

Sequence of CK1ε (P49674 whole entry): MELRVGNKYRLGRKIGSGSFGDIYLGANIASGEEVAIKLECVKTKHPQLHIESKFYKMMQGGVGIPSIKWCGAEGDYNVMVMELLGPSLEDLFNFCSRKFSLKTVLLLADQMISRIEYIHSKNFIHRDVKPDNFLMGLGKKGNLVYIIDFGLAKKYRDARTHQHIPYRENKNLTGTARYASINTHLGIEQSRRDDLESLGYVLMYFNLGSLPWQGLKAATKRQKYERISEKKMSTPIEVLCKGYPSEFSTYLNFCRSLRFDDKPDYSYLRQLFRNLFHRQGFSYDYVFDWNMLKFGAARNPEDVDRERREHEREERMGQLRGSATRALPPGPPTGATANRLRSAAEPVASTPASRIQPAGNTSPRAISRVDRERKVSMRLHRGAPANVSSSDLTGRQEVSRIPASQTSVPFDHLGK

For `NC(=O)c1c(-c2cc(Cl)cc(Cl)c2)nn2c1CN(C(=O)NC1CC(F)(F)C1)CC2` [Compound 293, 2-(3,5-Dichlorophenyl)-N^5-(3,3-difluorocyclobutyl)-6,7-dihydropyrazolo[1,5-a] pyrazine-3,5(4H)-dicarboxamide], the IC50 on CK1ε (read-out: CK1ε IC50 range) and on CK1δ (read-out: CK1δ IC50 range) was 0.01 to 10 nM throughout.

On to `NC(=O)c1c(-c2ccc(Cl)c(Cl)c2)nn2c1CN(C(=O)NC1CC(C(F)F)C1)CC2` (stereo not shown) [Compound 254, 2-(3,4-Dichlorophenyl)-N^5-(3-(difluoromethyl)cyclobutyl)-6,7-dihydropyrazolo[1,5-a]pyrazine-3,5(4H)-dicarboxamide], for which the IC50 at CK1ε (read-out: CK1ε IC50 range) and at CK1δ (read-out: CK1δ IC50 range) was 0.01 to 10 nM each time.

On to `NC(=O)c1c(-c2cccc(F)c2)nn2c1CN(C(=O)NCC(F)(F)F)CC2` [Compound 15, 2-(3-Fluorophenyl)-N^5-(2,2,2-trifluoroethyl)-6,7-dihydropyrazolo[1,5-a]pyrazine-3,5(4H)-dicarboxamide], for which the IC50 on CK1ε (read-out: CK1ε IC50 range) fell in the range of 100 to 2000 nM; on CK1δ (read-out: CK1δ IC50 range), 10 to 100 nM.

For the compound `CC(C)(C)NC(=O)N1CCn2nc(-c3ccc(F)cc3F)c(C(N)=O)c2C1` [Compound 124, N^5-(tert-Butyl)-2-(2,4-difluorophenyl)-6,7-dihydropyrazolo[1,5-a] pyrazine-3,5(4H)-dicarboxamide], the IC50 is 118 nM on CK1ε (read-out: CK1ε) and 172 nM at CK1δ (read-out: CK1δ).

On to `NC(=O)c1c(-c2ccc(F)c(Cl)c2)nn2c1CN(C(=O)NC1CC3(C1)CC3(F)F)CC2` (single isomer, unassigned) [Compound 321, 2-(3-Chloro-4-fluorophenyl)-N^5-(1,1-difluorospiro[2.3]hexan-5-yl)-6,7-dihydropyrazolo[1,5-a]pyrazine-3,5(4H)-dicarboxamide], for which the IC50 on CK1ε (read-out: CK1ε IC50 range) and at CK1δ (read-out: CK1δ IC50 range) was 0.01 to 10 nM in each case.

In the case of `COC12CCC(NC(=O)N3CCn4nc(-c5cccc(Cl)c5)c(C(N)=O)c4C3)(CC1)C2` [Compound A82, 2-(3-Chlorophenyl)-N^5-(4-methoxybicyclo[2.2.1]heptan-1-yl)-6,7-dihydropyrazolo[1,5-a]pyrazine-3,5(4H)-dicarboxamide], the IC50 at CK1ε (read-out: CK1ε IC50 range) and on CK1δ (read-out: CK1δ IC50 range) was 0.01 to 10 nM throughout.

`CC(C)(C)NC(=O)N1Cc2c(C(N)=O)c(-c3ccc(F)c(Cl)c3)nn2C(C(C)(C)C)C1` (stereo not shown) [Compound A118, N^5-7-Di-tert-butyl-2-(3-chloro-4-fluorophenyl)-6,7-dihydropyrazolo[1,5-a]pyrazine-3,5(4H)-dicarboxamide]: the IC50 at CK1ε (read-out: CK1ε IC50 range) and on CK1δ (read-out: CK1δ IC50 range) was 0.01 to 10 nM each time.

With `N#CC12C3C4C1C1C2C3C41NC(=O)N1CCn2nc(-c3cccc(Cl)c3)c(C(N)=O)c2C1` (stereo not shown) [Compound A87, N^5-(4-Cyanocuban-1-yl)-2-(3-chlorophenyl)-6,7-dihydropyrazolo[1,5-a]pyrazine-3,5(4H)-dicarboxamide], the IC50 at CK1ε (read-out: CK1ε IC50 range) and at CK1δ (read-out: CK1δ IC50 range) was 0.01 to 10 nM in each case.

In the case of `COCCC1CN(C(=O)NC(C)(C)C)Cc2c(C(N)=O)c(-c3ccc(F)c(Cl)c3)nn21` (single isomer, unassigned) [Compound A100, N^5-(tert-Butyl)-2-(3-chloro-4-fluorophenyl)-7-(2-methoxyethyl)-6,7-dihydropyrazolo[1,5-a]pyrazine-3,5(4H)-dicarboxamide], the figures for the IC50 at CK1ε (read-out: CK1ε IC50 range) and at CK1δ (read-out: CK1δ IC50 range) were 0.01 to 10 nM and 10 to 100 nM, respectively.

Take `NC(=O)c1c(-c2cccc(Cl)c2)nn2c1CN(C(=O)NC1CC3(CC3)C1)CC2` [Compound 181, 2-(3-Chlorophenyl)-N^5-(spiro[2.3]hexan-5-yl)-6,7-dihydropyrazolo[1,5-a]pyrazine-3,5(4H)-dicarboxamide]: the IC50 at CK1ε (read-out: CK1ε IC50 range) and at CK1δ (read-out: CK1δ IC50 range) was 0.01 to 10 nM each time.

As for `N#Cc1ccc(O[C@H]2C[C@H](NC(=O)N3CCn4nc(-c5cccc(Cl)c5)c(C(N)=O)c4C3)C2)cc1` [Compound 267, 2-(3-Chlorophenyl)-N^5-((1r,3r)-3-(4-cyanophenoxy)cyclobutyl)-6,7-dihydropyrazolo[1,5-a] pyrazine-3,5(4H)-dicarboxamide], the IC50 on CK1ε (read-out: CK1ε IC50 range) and on CK1δ (read-out: CK1δ IC50 range) was 0.01 to 10 nM throughout.

Regarding `N#Cc1cccc(NC(=O)N2CCn3nc(-c4cccc(F)c4)c(C(N)=O)c3C2)c1` [Compound 54, N^5-(3-Cyanophenyl)-2-(3-fluorophenyl)-6,7-dihydropyrazolo[1,5-a]pyrazine-3,5(4H)-dicarboxamide], the IC50 at CK1ε (read-out: CK1ε IC50 range) and at CK1δ (read-out: CK1δ IC50 range) was 0.01 to 10 nM throughout.

`CC1CN(C(=O)NC(C)(C)C)Cc2c(C(N)=O)c(-c3cccc(F)c3)nn21` (single isomer, unassigned) [Compound A109, N^5-(tert-Butyl)-2-(3-fluorophenyl)-7-methyl-6,7-dihydropyrazolo[1,5-a]pyrazine-3,5(4H)-dicarboxamide]: the IC50 on CK1ε (read-out: CK1ε IC50 range) and at CK1δ (read-out: CK1δ IC50 range) was 0.01 to 10 nM in each case.

With `CC(C)(C)C1CN(C(=O)NC2CC(F)(F)C2)Cc2c(C(N)=O)c(-c3ccc(F)c(Cl)c3)nn21` (single isomer, unassigned) [Compound A121, 7-(tert-Butyl)-2-(3-chloro-4-fluorophenyl)-N5-(3,3-difluorocyclobutyl)-6,7-dihydropyrazolo[1,5-a]pyrazine-3,5(4H)-dicarboxamide], the values for the IC50 on CK1ε (read-out: CK1ε IC50 range) and at CK1δ (read-out: CK1δ IC50 range) were 10 to 100 nM and 100 to 2000 nM, respectively.

On to `CC(C)(NC(=O)N1CCn2nc(-c3cccc(Cl)c3)c(C(N)=O)c2C1)c1ccc(C#N)cc1` [Compound 173, 2-(3-Chlorophenyl)-N^5-(2-(4-cyanophenyl)propan-2-yl)-6,7-dihydropyrazolo[1,5-a] pyrazine-3,5(4H)-dicarboxamide], for which the IC50 on CK1ε (read-out: CK1ε IC50 range) and at CK1δ (read-out: CK1δ IC50 range) was 0.01 to 10 nM each time.

For the compound `NC(=O)c1c(-c2cccc(F)c2)nn2c1CN(C(=O)NCCc1ccc(F)cc1)CC2` [Compound 42, N^5-(4-Fluorophenethyl)-2-(3-fluorophenyl)-6,7-dihydropyrazolo[1,5-a]pyrazine-3,5(4H)-dicarboxamide], the values for the IC50 on CK1ε (read-out: CK1ε IC50 range) and on CK1δ (read-out: CK1δ IC50 range) were 100 to 2000 nM and 10 to 100 nM, respectively.

`CC(C)(C)NC(=O)N1Cc2c(C(N)=O)c(-c3cccc(F)c3)nn2C2(CC2)C1` [Compound A131, N^5′-(tert-Butyl)-2′-(3-fluorophenyl)-4′H-spiro[cyclopropane-1,7′-pyrazolo[1,5-a]pyrazine]-3′,5′(6′H)-dicarboxamide]: the IC50 on CK1ε (read-out: CK1ε IC50 range) and on CK1δ (read-out: CK1δ IC50 range) was 10 to 100 nM in each case.

With `CC(C)(C)NC(=O)N1Cc2c(C(N)=O)c(-c3ccc(F)c(Cl)c3)nn2CC1C(F)(F)F` (single isomer, unassigned) [Compound 347, N^5-(tert-Butyl)-2-(3-chloro-4-fluorophenyl)-6-(trifluoromethyl)-6,7-dihydropyrazolo[1,5-a]pyrazine-3,5(4H)-dicarboxamide], the IC50 at CK1ε (read-out: CK1ε IC50 range) was 0.01 to 10 nM; on CK1δ (read-out: CK1δ IC50 range) it was 10 to 100 nM.

With `NC(=O)c1c(-c2cccc(Cl)c2)nn2c1CN(C(=O)NC1CC(F)(F)C1)CC2CF` (single isomer, unassigned) [Compound A112, 2-(3-Chlorophenyl)-N^5-(3,3-difluorocyclobutyl)-7-(fluoromethyl)-6,7-dihydropyrazolo[1,5-a]pyrazine-3,5(4H)-dicarboxamide], the IC50 on CK1ε (read-out: CK1ε IC50 range) and on CK1δ (read-out: CK1δ IC50 range) was 0.01 to 10 nM throughout.

For `N#Cc1ccc(C2(NC(=O)N3CCn4nc(-c5ccc(Cl)c(Cl)c5)c(C(N)=O)c4C3)CC(F)(F)C2)cc1` [Compound 316, N^5-(1-(4-Cyanophenyl)-3,3-difluorocyclobutyl)-2-(3,4-dichlorophenyl)-6,7-dihydropyrazolo[1,5-a]pyrazine-3,5(4H)-dicarboxamide], the IC50 at CK1ε (read-out: CK1ε IC50 range) and on CK1δ (read-out: CK1δ IC50 range) was 0.01 to 10 nM in each case.

(Values after patent US9273058B2 (BRISTOL-MYERS SQUIBB COMPANY, priority 2013, dated 2016).)
